The values below come from US8299048B2, “Hexahydrocyclopentyl[f]indazole sulfonamides and derivatives thereof as selective glucocorticoid receptor modulators” (Merck Sharp & Dohme Corp., priority 2008, dated 2012).

pKi: −log10 of the molar value.

The term pKi denotes the Ki on a negative log10 scale, so that one unit is a factor of ten.

For the assay, the target named is T1, glucocorticoid receptor (Homo sapiens, UniProt P04150).
T1 construct: endogenous in cells
T1 sequence (P04150 1-777): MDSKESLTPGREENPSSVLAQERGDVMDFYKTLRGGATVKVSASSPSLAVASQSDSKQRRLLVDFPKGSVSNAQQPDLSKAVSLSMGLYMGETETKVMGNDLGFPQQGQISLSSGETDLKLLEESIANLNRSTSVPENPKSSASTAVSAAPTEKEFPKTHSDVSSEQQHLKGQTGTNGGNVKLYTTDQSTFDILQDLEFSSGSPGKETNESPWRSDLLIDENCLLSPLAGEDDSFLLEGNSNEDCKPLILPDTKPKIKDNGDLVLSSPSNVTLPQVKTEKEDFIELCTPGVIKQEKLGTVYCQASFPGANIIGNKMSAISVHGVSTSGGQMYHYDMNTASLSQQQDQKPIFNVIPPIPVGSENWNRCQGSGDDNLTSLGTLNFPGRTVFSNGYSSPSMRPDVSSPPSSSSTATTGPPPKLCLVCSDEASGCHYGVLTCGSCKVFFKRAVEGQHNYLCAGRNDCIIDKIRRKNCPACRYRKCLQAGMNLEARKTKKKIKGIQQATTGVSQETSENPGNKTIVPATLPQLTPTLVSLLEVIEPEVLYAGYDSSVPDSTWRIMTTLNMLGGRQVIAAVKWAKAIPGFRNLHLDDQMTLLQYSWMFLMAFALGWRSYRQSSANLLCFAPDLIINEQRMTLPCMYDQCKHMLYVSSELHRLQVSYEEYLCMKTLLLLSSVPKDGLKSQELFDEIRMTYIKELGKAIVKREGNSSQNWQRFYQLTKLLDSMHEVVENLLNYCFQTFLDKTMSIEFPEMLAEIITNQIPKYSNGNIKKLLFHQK
As to the kind of experiment: Ligand binding assay (GR BIND). How it is done: • Materials: • Binding Buffer: TEGM (10 mM Tris-HCl, 1 mM EDTA, 10% glycerol, 1 mM beta-mecaptoethanol, 10 mM Sodium Molybdate, pH 7.2) • 50% HAP Slurry: Calbiochem Hydroxylapatite, Fast Flow, in 10 mM Tris, pH 8.0 and 1 mM EDTA. • Wash Buffer: 40 mM Tris, pH7.5, 100 mM KCl, 1 mM EDTA and 1 mM EGTA.
Phenol red-free Trypsin-EDTA is diluted in the same PBS1:10. The cell layers are rinsed with 1× Trypsin, extra Trypsin is poured out, and the cell layers are incubated at 37° C. for ˜2 min. The flask is tapped and checked for signs of cell detachment. Once the cells begin to slide off the flask, the complete media is added. The cells are counted at this point, then diluted to the appropriate concentration and split into flasks or dishes for further culturing (Usually 1:3 to 1:6 dilution).
When the cells are 70 to 85% confluent, they are detached as described above, and collected by centrifuging at 1000 g for 10 minutes at 4° C. The cell pellet is washed twice with TEGM (10 mM Tris-HCl, 1 mM EDTA, 10% glycerol, 1 mM beta-mercaptoethanol, 10 mM Sodium Molybdate, pH 7.2). After the final wash, the cells are resuspended in TEGM at a concentration of 10^7 cells/mL. The cell suspension is snap frozen in liquid nitrogen or ethanol/dry ice bath and transferred to −80° C. freezer on dry ice. Before setting up the binding assay, the frozen samples are left on ice-water to just thaw (˜1 hr). Then the samples are centrifuged at 12,500 g to 20,000 g for 30 min at 4° C. The supernatant is used to set-up assay right away. If using 50 μL of supernatant, the test compound can be prepared in 50 μL of the TEGM buffer.
1×TEGM buffer is prepared, and the isotope-containing assay mixture is prepared in the following order: EtOH (2% final concentration in reaction), 3H-DEX (Amersham Biosciences) and 1×TEGM. [e.g. For 100 samples, 200 μL (100×2) of EtOH+4.25 μL of 1:10 ^3H—Dex stock+2300 μL (100×23) 1×TEGM]. The compound is serially diluted, e.g., if starting final conc. is 1 μM, and the compound is in 25 μL of solution, for duplicate samples, 75 μL of 4×1 μM solution is made and 3 μL of 100 μM is added to 72 μL of buffer, and 1:5 serial dilution.
25 μL of ^3H-DEX (6 nM) trace and 25 μL compound solution are first mixed together, followed by addition of 50 μL receptor solution. The reaction is gently mixed, spun briefly at about 200 rpm and incubated at 4° C. overnight. 100 μL of 50% HAP slurry is prepared and added to the incubated reaction which is then vortexed and incubated on ice for 5 to 10 minutes. The reaction mixture is vortexed twice more to resuspend HAP while incubating reaction. The samples in 96-well format are then washed in wash buffer using The FilterMate™ Universal Harvester plate washer (Packard). The washing process transfers HAP pellet containing ligand-bound expressed receptor to Unifilter-96 GF/B filter plate (Packard). The HAP pellet on the filter plate is incubated with 50 μL of MICROSCINT (Packard) scintillint for 30 minutes before being counted on the TopCount microscintillation counter (Packard). […] are calculated using DEX as a reference.
`C[C@]12Cc3cnn(-c4ccc(F)cc4)c3C=C1CC[C@@H]2CN(CCc1ccccc1O)S(=O)(=O)Cc1cccc(C(F)(F)F)c1` [Example 122, N-{[(4αR,5S)-1-(4-fluorophenyl)-4α-methyl-1,4,4α,5,6,7-hexahydrocyclopenta[f]indazol-5-yl]methyl}-N-[2-(2-hydroxyphenyl)ethyl]-1-[3-(trifluoromethyl)phenyl]methanesulfonamide] showed a pKi of 8.54. In the case of `Cc1noc(C)c1S(=O)(=O)N(CCc1ccccc1O)C[C@H]1CCC2=Cc3c(cnn3-c3ccc(F)cc3)C[C@@]21C` [Example 123, N-{[(4αR,5S)-1-(4-fluorophenyl)-4α-methyl-1,4,4α,5,6,7-hexahydrocyclopenta[f]indazol-5-yl]methyl}-N-[2-(2-hydroxyphenyl)ethyl]-3,5-dimethylisoxazole-4-sulfonamide] it was 9.05; in that of `C[C@]12Cc3cnn(-c4ccc(F)cc4)c3C=C1CC[C@@H]2CN(CCc1ccccc1F)S(=O)(=O)Cc1cccnc1` [Example 124, N-[2-(2-fluorophenyl)ethyl]-N-{[(4αR,5S)-1-(4-fluorophenyl)-4α-methyl-1,4,4α,5,6,7-hexahydrocyclopenta[f]indazol-5-yl]methyl}-1-pyridin-3-ylmethanesulfonamide], 9.15; in that of `COc1ccccc1CCN(C[C@H]1CCC2=Cc3c(cnn3-c3ccc(F)cc3)C[C@@]21C)S(=O)(=O)Cc1cccnc1` [Example 125, N-{[(4αR,5S)-1-(4-fluorophenyl)-4α-methyl-1,4,4α,5,6,7-hexahydrocyclopenta[f]indazol-5-yl]methyl}-N-[2-(2-methoxyphenyl)ethyl]-1-pyridin-3-ylmethanesulfonamide], 9.00.

For the compound `COc1cccc(CCN(C[C@H]2CCC3=Cc4c(cnn4-c4ccc(F)cc4)C[C@@]32C)S(=O)(=O)CC(F)(F)F)c1` [Example 126, 2,2,2-trifluoro-N-{[(4αR,5S)-1-(4-fluorophenyl)-4α-methyl-1,4,4α,5,6,7-hexahydrocyclopenta[f]indazol-5-yl]methyl}-N-[2-(3-methoxyphenyl)ethyl]ethanesulfonamide], the pKi was 9.05.

For `COc1ccc(CCN(C[C@H]2CCC3=Cc4c(cnn4-c4ccc(F)cc4)C[C@@]32C)S(=O)(=O)CC(F)(F)F)cc1` [Example 127, 2,2,2-trifluoro-N-{[(4αR,5S)-1-(4-fluorophenyl)-4α-methyl-1,4,4α,5,6,7-hexahydrocyclopenta[f]indazol-5-yl]methyl}-N-[2-(4-methoxyphenyl)ethyl]ethanesulfonamide], the pKi is 8.96. Next, `C[C@]12Cc3cnn(-c4ccc(F)cc4)c3C=C1CC[C@@H]2CN(CCc1ccccn1)S(=O)(=O)CC(F)(F)F` [Example 128, 2,2,2-trifluoro-N-{[(4αR,5S)-1-(4-fluorophenyl)-4α-methyl-1,4,4α,5,6,7-hexahydrocyclopenta[f]indazol-5-yl]methyl}-N-(2-pyridin-2-ylethyl)ethanesulfonamide]: 9.10; `C[C@]12Cc3cnn(-c4ccc(F)cc4)c3C=C1CC[C@@H]2CN(CCc1ccncc1)S(=O)(=O)CC(F)(F)F` [Example 129, 2,2,2-trifluoro-N-{[(4αR,5S)-1-(4-fluorophenyl)-4α-methyl-1,4,4α,5,6,7-hexahydrocyclopenta[f]indazol-5-yl]methyl}-N-(2-pyridin-4-ylethyl)ethanesulfonamide]: 8.72; `C[C@]12Cc3cnn(-c4ccc(F)cc4)c3C=C1CC[C@@H]2CN(CCc1ccc(O)cc1)S(=O)(=O)CC(F)(F)F` [Example 130, 2,2,2-trifluoro-N-{[(4αR,5S)-1-(4-fluorophenyl)-4α-methyl-1,4,4α,5,6,7-hexahydrocyclopenta[f]indazol-5-yl]methyl}-N-[2-(4-hydroxyphenyl)ethyl]ethanesulfonamide]: 8.74. In the case of `C[C@]12Cc3cnn(-c4ccc(F)cc4)c3C=C1CC[C@@H]2CN(CCc1ccccc1O)S(=O)(=O)Cc1cccnc1` [Example 131, N-{[(4αR,5S)-1-(4-fluorophenyl)-4α-methyl-1,4,4α,5,6,7-hexahydrocyclopenta[f]indazol-5-yl]methyl}-N-[2-(2-hydroxyphenyl)ethyl]-1-pyridin-3-ylmethanesulfonamide] it was 8.77. As for `C[C@]12Cc3cnn(-c4ccc(F)cc4)c3C=C1CC[C@@H]2CN(Cc1cccnn1)S(=O)(=O)CC(F)(F)F` [Example 132, 2,2,2-trifluoro-N-{[(4αR,5S)-1-(4-fluorophenyl)-4α-methyl-1,4,4α,5,6,7-hexahydrocyclopenta[f]indazol-5-yl]methyl}-N-(pyridazin-3-ylmethyl)ethanesulfonamide], the pKi was 8.26. Next, `C[C@]12Cc3cnn(-c4ccc(F)cc4)c3C=C1CC[C@@H]2CN(CC(O)C(F)F)S(=O)(=O)CC(F)(F)F` (stereo partly drawn) [Example 133, N-(3,3-difluoro-2-hydroxypropyl)-2,2,2-trifluoro-N-{[(4αR,5S)-1-(4-fluorophenyl)-4α-methyl-1,4,4α,5,6,7-hexahydrocyclopenta[f]indazol-5-yl]methyl}ethanesulfonamide]: 9.10; `C[C@]12Cc3cnn(-c4ccc(F)cc4)c3C=C1CC[C@@H]2CN(CC(OS(=O)(=O)CC(F)(F)F)C(F)F)S(=O)(=O)CC(F)(F)F` (stereo partly drawn) [Example 134, 2,2-difluoro-1-({{[(4αR,5S)-1-(4-fluorophenyl)-4α-methyl-1,4,4α,5,6,7-hexahydrocyclopenta[f]indazol-5-yl]methyl}[(2,2,2-trifluoroethyl)sulfonyl]amino}methyl)ethyl 2,2,2-trifluoroethanesulfonate]: 8.74; `C[C@]12Cc3cnn(-c4ccc(F)cc4)c3C=C1CC[C@@H]2CN(CC1(O)CC1)S(=O)(=O)CC(F)(F)F` [Example 135, 2,2,2-trifluoro-N-{[(4αR,5S)-1-(4-fluorophenyl)-4α-methyl-1,4,4α,5,6,7-hexahydrocyclopenta[f]indazol-5-yl]methyl}-N-[(1-hydroxycyclopropyl)methyl]ethanesulfonamide]: 8.54. Next, `C[C@]12Cc3cnn(-c4ccc(F)cc4)c3C=C1CC[C@@H]2CN(CC1(OS(=O)(=O)CC(F)(F)F)CC1)S(=O)(=O)CC(F)(F)F` [Example 136, 1-({{[(4αR,5S)-1-(4-fluorophenyl)-4α-methyl-1,4,4α,5,6,7-hexahydrocyclopenta[f]indazol-5-yl]methyl}[(2,2,2-trifluoroethyl)sulfonyl]amino}methyl)cyclopropyl 2,2,2-trifluoroethanesulfonate]: 8.60.

Compound `C[C@]12Cc3cnn(-c4ccccc4)c3C=C1CC[C@@H]2CN(CCc1ccccc1F)S(=O)(=O)CC(F)(F)F` [Example 137, 2,2,2-trifluoro-N-[2-(2-fluorophenyl)ethyl]-N-{[(4αR,5S)-4α-methyl-1-phenyl-1,4,4α,5,6,7-hexahydrocyclopenta[f]indazol-5-yl]methyl}ethanesulfonamide] gave a pKi of 9.05.
